{"source": "patent US20240024466A1", "about": "“LIPIDOID COMPOSITIONS AND METHODS OF USE THEREOF” (Trustees of Tufts College, priority 2020, published 2024)", "molecules": {"B1": {"name": "ovalbumin (protein, UniProt P01012 2-386, looked up)", "Ovalbumin": "GSIGAASMEFCFDVFKELKVHHANENIFYCPIAIMSALAMVYLGAKDSTRTQINKVVRFDKLPGFGDSIEAQCGTSVNVHSSLRDILNQITKPNDVYSFSLASRLYAEERYPILPEYLQCVKELYRGGLEPINFQTAADQARELINSWVESQTNGIIRNVLQPSSVDSQTAMVLVNAIVFKGLWEKAFKDEDTQAMPFRVTEQESKPVQMMYQIGLFRVASMASEKMKILELPFASGTMSMLVLLPDEVSGLEQLESIINFEKLTEWTSSNVMEERKIKVYLPRMKMEEKYNLTSVLMAMGITDVFSSSANLSGISSAESLKISQAVHAAHAEINEAGREVVGSAEAGVDAASVSEEFRADHPFLFCIKHIATNAVLFFGRCVSP"}, "B2": {"name": "OVA^Alexa-647: Alexa Fluor 647-conjugated OVA, model antigen (protein, UniProt P01012 2-386, looked up)", "Ovalbumin": "B1 Ovalbumin", "modifications": "Alexa Fluor 647 label"}}, "key": {"[1]": {"tested_on": "C57BL/6 mice", "assay": "OVA prime-boost immunization with LNP formulations, antibody response by ELISA", "conditions": "rough library screening, OVA formulated with LNPs, injections at day 1 and day 14, FIG. 7B"}, "[2]": {"tested_on": "dengue virus", "assay": "nAb response to a protein-based dengue virus vaccine with TLR ligands", "conditions": "in vivo", "description": "The two TLR ligands individually will be produced and in combination into mRNA-LNPs and test if they enhance nAb response and reduce antibody-dependent enhancement. The mechanisms underlying the enhanced nAb response will be investigated for further adjuvant optimization."}, "[3]": {"tested_on": "STING pathway", "assay": "In vitro ifnb1 and cxcl10 gene expression by RT PCR", "assay_type": "cell-based", "conditions": "DC2.4, 150 nM cGAMP, 4 h"}, "[4]": {"tested_on": "STING pathway", "assay": "In vitro ifnb1 and cxcl10 gene expression by RT PCR", "assay_type": "cell-based", "conditions": "RAW264.7, 150 nM cGAMP, 4 h"}, "[5]": {"tested_on": "STING pathway", "assay": "In vivo ifnb1 and cxcl10 gene expression in tumors by RT PCR", "set-up": "species or system C57BL/6 mice", "conditions": "intratumoral, one day after DOX injection, 6 h post second injection"}, "[6]": {"tested_on": "B16F10 tumors", "assay": "Immunocellular composition of the tumor microenvironment (flow cytometry)", "conditions": "48 h after the second injection", "quoted_text": "To further evaluate the changes of the cellular composition after the treatment, the tumors were collected at 48 h after the second injection. The tumors were dissociated to single cells, stained with antibodies, and analyzed by the flowcytometry (FIG. 11).\nAfter 48 h post the second injection, the tumors were collected and suspended to single cell solutions by 40 μm strainer (Thermo-Fisher). The cells were collected, washed with PBS, and stained with fluorescent antibodies of CD4 (APC-Cy7), CD8a (PE-Cy5), CD45 (PE), CD3e (FITC), F4/80 (APC), and CD11c (APC) in Flow Cytometry Staining Buffer (eBioscience). Fluorescent signal was measured using LSR-II flow cytometer (BD Biosciences). The data was analyzed by FlowJo-v10."}, "[7]": {"tested_on": "B16F10 tumor", "assay": "Treatment of B16F10 tumor by in situ vaccination", "assay_type": "in vivo, C57BL/6 mice", "conditions": "DOX day 0, second and third injection day 1 and 5, intratumoral"}, "[8]": {"tested_on": "draining lymph nodes", "assay": "In vivo mRNA delivery, luciferase mRNA expression in draining lymph nodes", "conditions": "adjuvant incorporated into the LNP"}, "[9]": {"tested_on": "BALB/c mice", "conditions": "s.c., IVIS 5 h after second injection"}}, "data": [{"molecule": "lipopolysaccharide [LPS]", "values": [{"measurement": "IgG1 antibody response", "setting": "[1]", "value": "extremely positive"}]}, {"molecule": "poly I:C", "values": [{"measurement": "nAb responses to a protein-based dengue virus vaccine", "setting": "[2]", "value": "dramatically augment"}]}, {"molecule": "Nc1nc2c(ncn2[C@@H]2O[C@@H]3COP(=O)(O)O[C@H]4[C@@H](O)[C@H](n5cnc6c(N)ncnc65)O[C@@H]4COP(=O)(O)O[C@@H]2[C@@H]3O)c(=O)[nH]1", "note": "[cGAMP, 2′5′-3′5′ cyclic guanosine monophosphate-adenosine monophosphate]", "values": [{"measurement": "expression of ifnb1 gene compared with PBS-treated cells", "setting": "[3]", "value": "modest increase"}, {"measurement": "expression of ifnb1 gene compared with PBS-treated cells", "setting": "[4]", "value": "modest increase"}, {"measurement": "expression of ifnb1 and cxcl10 genes in B16F10 tumors", "setting": "[5]", "value": "modest increase"}, {"measurement": "population of CD4+ and CD8+ T cells at tumor sites", "setting": "[6]", "value": "increasement"}]}, {"molecule": "COc1cccc2c1C(=O)c1c(O)c3c(c(O)c1C2=O)C[C@@](O)(C(=O)CO)C[C@@H]3O[C@H]1C[C@H](N)[C@H](O)[C@H](C)O1", "note": "[DOX, doxorubicin]", "values": [{"measurement": "tumor growth inhibition (tumor volumes)", "setting": "[7]", "value": "slight inhibition"}, {"measurement": "expression of ifnb1 and cxcl10 genes in B16F10 tumors", "setting": "[5]", "value": "did not changed significantly"}, {"measurement": "population of CD4+ and CD8+ T cells at tumor sites", "setting": "[6]", "value": "did not make significant changes"}]}, {"molecule": "Pam3CSK4", "values": [{"measurement": "nAb responses to a protein-based dengue virus vaccine", "setting": "[2]", "value": "dramatically augment"}, {"measurement": "expression of luciferase mRNA in draining lymph nodes", "setting": "[8]", "value": "increased"}]}, {"molecule": "B1", "values": [{"measurement": "IgG1 antibody response", "setting": "[1]", "value": "very low antibody response"}]}, {"molecule": "B2", "values": [{"measurement": "distribution of OVA^Alexa-647 fluorescence signal", "setting": "[9]", "value": "mainly distributed in bladder"}]}]}
